Each structure is given as a SMILES string.

We go through 10 compounds from US8604217B2, “Compound, a process for its preparation, a pharmaceutical composition, use of a compound, a method for modulating or regulating serine/threonine kinases and a serine/threonine kinases modulating agent” (Selvita S.A., priority 2009, dated 2013).

For test [1], the target named is PIM-1 (Homo sapiens (Human), UniProt P11309). Briefly: Luminometric kinase assay for PIM1 kinase (Kinase-Glo). The format is biochemical. To be noted: 1 μM ATP, 25 min at RT. The essentials: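 Kinase and substrate reacted in 8 mM MOPS/NaOH pH7.0, 0.2 mM EDTA, 2 mM MgCl2 with 1 μM ATP for 25 min at RT, compounds serially diluted from 1 μM. Remaining ATP read by Kinase-Glo luminescence; IC50 from variable-slope sigmoidal fit.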
PIM-1, sequence (P11309 whole entry): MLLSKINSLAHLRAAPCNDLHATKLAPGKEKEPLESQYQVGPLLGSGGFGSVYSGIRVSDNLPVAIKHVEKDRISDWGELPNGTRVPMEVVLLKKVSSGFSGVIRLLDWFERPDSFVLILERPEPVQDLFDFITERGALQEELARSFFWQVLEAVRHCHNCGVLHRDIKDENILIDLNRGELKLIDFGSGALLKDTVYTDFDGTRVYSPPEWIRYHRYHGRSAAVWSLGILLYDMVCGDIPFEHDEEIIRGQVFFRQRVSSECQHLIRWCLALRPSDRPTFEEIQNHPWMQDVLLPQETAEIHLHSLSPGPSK
Background: In Kinase-Glo more light means more ATP remaining.

Test [2] concerns human myelomonocytic, biphenotypic leukemia MV4-11 cells. Description: Growth inhibition test (MTS) on MV4-11 cells. Type of test: cell-based. The following applies: Homo sapiens, MV4-11, 72 hours, read-out: MV-4-11 ED50. The essentials:
MV4-

The test system of test [3] is human chronic myelocytic leukemia K562 cells. Description: Growth inhibition test (MTS) on K562 cells. The following applies: Homo sapiens, K562, 72 hours, read-out: K562 ED50. Type of test: cell-based. The protocol: (§1) Ten thousand cells of human chronic myelocytic leukemia K562 were inoculated into each well of a 96-well microplate (manufactured by Corning Corp.) using Iscove's MDM medium (culture medium) containing 10% fetal calf serum (FCS). Next day, a dimethyl sulfoxide (DMSO) solution of each test compound prepared in a concentration of 10 mmol/L was further diluted with culture medium to the desired concentrations (0.1, 0.5, 1, 2.5, 5 and 10 micromol/L), and the diluted solution was added to each well. The individual wells were further cultured in 5% carbon dioxide at 37° C. for 72 hours. After completion of the culture, 10 μl MTS (3-(4,5-Dimethyl-2-thiazolyl)-5-(carboxymethoxyphenyl)-2-(4-sulfophenyl)-2H-tetrazolium, inner salt assay (CellTiter96® AQueous One Solution Cell Proliferation Assay, Promega) was added to each well, and culturing was performed in 5% carbon dioxide at 37° C. for 2 hours. Using a microplate spectrophotometer (Synergy 2 multi-mode microplate reader (BioTek)), the absorbance of each well was measured at 490 nm. The value for cells not incorporated with a test compound was designated as 100%. By comparing these values with the absorbance difference obtained at the well in which each test compound was added, the cell viability (% viability) after treatment with the test compound was calculated.

The test system of test [4] is human colorectal adenocarcinoma SW480 cells. Briefly: Growth inhibition test (MTS) on SW480 cells. Type of test: cell-based. The following applies: Homo sapiens, SW480, 72 hours, read-out: SW480 ED50. The method, then:
as §1, with “Two” for “Ten”, “colorectal adenocarcinoma SW480” for “chronic myelocytic leukemia K562”, “Corp.), and” for “Corp.)”, “DMEM/Ham's F121:1” for “Iscove's MDM”, “5%” for “10%”

Test [5] has as its system human prostate adenocarcinoma PC3 cells. Briefly: Growth inhibition test (MTS) on PC3 cells. The format is cell-based. The following applies: Homo sapiens, PC-3, 72 hours, read-out: PC-3 ED50.

Regarding `NCCCNc1nc2c(Br)c(Br)c(Br)c(Br)c2[nH]1` [Compound 11, N-(3-aminopropyl)-4,5,6,7-tetrabromo-1H-benzo[d]imidazol-2-amine], the IC50 in test [1] is 5.89 nM; in test [2] it was 1030 nM; in test [3] it was 7.47 µM; in test [4], 2470 nM; in test [5], 4.9 µM.

For `Brc1c(Br)c(Br)c2[nH]c(N3CCNCC3)nc2c1Br` [Compound 20, 4,5,6,7-tetrabromo-2-(piperazin-1-yl)-1H-benzo[d]imidazole], the IC50 in test [1] is 16.9 nM; in test [2], 480 nM; in test [3], 6.46 µM; in test [4], 3450 nM; in test [5], 5.14 µM.

For the compound `NC1CCC(Nc2nc3c(Br)c(Br)c(Br)c(Br)c3[nH]2)CC1` (stereo not shown) [Compound 87, N1-(4,5,6,7-tetrabromo-1H-benzo[d]imidazol-2-yl)cyclohexane-1,4-diamine], the IC50 in test [1] amounted to 15.1 nM; in test [2], 4200 nM; in test [3], 5.59 µM; in test [4], 2030 nM; in test [5], 5.65 µM.

Take `NC1CCCC(Nc2nc3c(Br)c(Br)c(Br)c(Br)c3[nH]2)C1` (stereo not shown) [Compound 336, N1-(4,5,6,7-tetrabromo-1H-benzo[d]imidazol-2-yl)cyclohexane-1,3-diamine]: the IC50 was determined as 18.8 nM in test [1]; 2600 nM in test [2]; 6.88 µM in test [3]; 4150 nM in test [4]; 8.4 µM in test [5].

For `Brc1c(Br)c(Br)c2[nH]c(N[C@H]3COC[C@@H]3N3CCCC3)nc2c1Br` [Compound 337, 4,5,6,7-tetrabromo-N-((3R,4R)-tetrahydro-4-(pyrrolidin-1-yl)furan-3-yl)-1H-benzo[d]imidazol-2-amine], the IC50 is 25.6 nM in test [1]; 2450 nM in test [2]; 3.02 µM in test [3]; 1610 nM in test [4]; 3.83 µM in test [5].

For the compound `Brc1c(Br)c(Br)c2[nH]c(N[C@H]3COC[C@@H]3N3CCCCC3)nc2c1Br` [Compound 338, 4,5,6,7-tetrabromo-N-((3R,4R)-tetrahydro-4-(piperidin-1-yl)furan-3-yl)-1H-benzo[d]imidazol-2-amine], the IC50 in test [1] was 21.7 nM; in test [2] it was 3300 nM; in test [3], 5.03 µM; in test [4], 1950 nM; in test [5], 4.76 µM.

Consider `NCc1ccccc1CNc1nc2c(Br)c(Br)c(Br)c(Br)c2[nH]1` [Compound 349, N-(2-(aminomethyl)benzyl)-4,5,6,7-tetrabromo-1H-benzo[d]imidazol-2-amine], for which the IC50 in test [1] was 69.8 nM; in test [2], 1580 nM; in test [3], 6.51 µM; in test [4] it was 1610 nM; in test [5], 4.7 µM.

Take `CN1CCCC(Nc2nc3c(Br)c(Br)c(Br)c(Br)c3[nH]2)CC1` (stereo not shown) [Compound 358, 4,5,6,7-tetrabromo-N-(1-methylazepan-4-yl)-1H-benzo[d]imidazol-2-amine]: the IC50 in test [1] is 5.82 nM; in test [2], 1000 nM; in test [3], 6.64 µM; in test [4] it was 2420 nM; in test [5], 6.2 µM.

For the compound `CC(C)n1c(N2CCNCC2)nc2c(Br)c(Br)c(Br)c(Br)c21` [Compound 359, 4,5,6,7-tetrabromo-1-isopropyl-2-(piperazin-1-yl)-1H-benzo[d]imidazole], the IC50 is 6.84 nM in test [1]; 600 nM in test [2]; 3.05 µM in test [3]; 1600 nM in test [4]; 2.95 µM in test [5].

For the compound `CN(C)C1CCCN(c2nc3c(Br)c(Br)c(Br)c(Br)c3[nH]2)C1` (stereo not shown) [Compound 378, 1-(4,5,6,7-tetrabromo-1H-benzo[d]imidazol-2-yl)-N,N-dimethylpiperidin-3-amine], the IC50 was determined as 39.1 nM in test [1], 6150 nM in test [2], 5000 nM in test [4] and 6.66 µM in test [5].
